According to ChEMBL document CHEMBL3132851, “Achieving improved permeability by hydrogen bond donor modulation in a series of MGAT2 inhibitors” (Medchemcomm, 2013):
Converted amounts (≈) assume the structure as drawn.

What was measured:
[1] = Lipophilicity, log D of the compound at pH 7.4 after 30 mins by shake-flask method; conditions: buffer; for logD at 0.5 h: pH 7.4, logD; for logD: pH 7.4, 0.5 h, 0.5 h
[2] = (§1) Apparent permeability of the compound from apical to basolateral side in human Caco2 cells; conditions: Caco-2, Papp
[3] = biological target: 2-acylglycerol O-acyltransferase 2 (Homo sapiens, UniProt Q3SYC2); assay: Inhibition of human MGAT2 by Rapidfire LCMS assay
Caco-2 = assay: as §1; conditions: caco-2
Cytochrome P450 2C19 = Cytochrome P450 2C19 (Homo sapiens, UniProt P33261); assay: Inhibition of CYP2C19 (unknown origin); type: ADME
[4] = Unbound fraction in mouse plasma by equilibrium dialysis method; type: ADME, cell-free
[5] = Bioavailability in mouse at 50 mg/kg, po and 1 mg/kg, iv; type: ADME, organism-based; conditions: in vivo
[6] = Volume of distribution at steady state in rat at 3 mg/kg, po and 1 mg/kg, iv; type: ADME, organism-based; conditions: in vivo, read-out: Vdss
[7] = Plasma clearance in rat at 3 mg/kg, po and 1 mg/kg, iv; type: ADME, organism-based
[8] = Half life in mouse at 1 mg/kg, iv; type: ADME, organism-based; design: dose 1 mg/kg, route intravenous; conditions: in vivo
[9] = Volume of distribution at steady state in mouse at 50 mg/kg, po and 1 mg/kg, iv; type: ADME, organism-based; conditions: in vivo, read-out: Vdss
[10] = Aqueous solubility of the compound in phosphate buffer at pH 7.4 after 24 hrs by LC-UVMS analysis; type: physicochemical
[11] = Unbound fraction in human plasma by equilibrium dialysis method; type: ADME, cell-free
[12] = Half life in mouse at 50 mg/kg, po; type: ADME, organism-based; design: dose 50 mg/kg, route oral; conditions: in vivo
[13] = Bioavailability in rat at 3 mg/kg, po and 1 mg/kg, iv; type: ADME, organism-based; conditions: in vivo
Cytochrome P450 3A4 = Cytochrome P450 3A4 (Homo sapiens, UniProt P08684); assay: Inhibition of CYP3A4 (unknown origin); type: ADME
Cytochrome P450 1A2 = biological target: T1, Cytochrome P450 1A2 (Homo sapiens, UniProt P05177); assay: Inhibition of CYP1A2 (unknown origin); type: ADME
T1 sequence (P05177 whole entry): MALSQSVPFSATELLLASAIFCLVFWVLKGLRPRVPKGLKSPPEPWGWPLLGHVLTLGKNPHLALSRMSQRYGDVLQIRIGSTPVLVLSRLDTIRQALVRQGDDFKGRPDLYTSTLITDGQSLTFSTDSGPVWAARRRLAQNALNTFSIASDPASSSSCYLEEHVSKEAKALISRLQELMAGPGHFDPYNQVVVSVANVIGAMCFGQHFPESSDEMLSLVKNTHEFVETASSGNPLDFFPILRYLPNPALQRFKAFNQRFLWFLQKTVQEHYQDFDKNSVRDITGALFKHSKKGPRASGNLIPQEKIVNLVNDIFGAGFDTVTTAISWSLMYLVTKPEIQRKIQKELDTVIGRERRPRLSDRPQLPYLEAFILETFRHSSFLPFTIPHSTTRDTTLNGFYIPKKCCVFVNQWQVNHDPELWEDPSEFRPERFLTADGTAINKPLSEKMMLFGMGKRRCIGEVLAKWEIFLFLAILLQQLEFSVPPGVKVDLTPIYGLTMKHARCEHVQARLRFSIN

Cytochrome P450 2D6 = Cytochrome P450 2D6 (Homo sapiens, UniProt P10635); assay: Inhibition of CYP2D6 (unknown origin); type: ADME
[14] = Unbound fraction in rat plasma by equilibrium dialysis method; type: ADME, cell-free
[15] = Half life in rat at 1 mg/kg, iv; type: ADME, organism-based; design: dose 1 mg/kg, route intravenous; conditions: in vivo
[16] = Plasma clearance in mouse at 50 mg/kg, po and 1 mg/kg, iv; type: ADME, organism-based
[17] = Half life in rat at 3 mg/kg, po; type: ADME, organism-based; design: dose 3 mg/kg, route oral; conditions: in vivo
Cytochrome P450 2C9 = Cytochrome P450 2C9 (Homo sapiens, UniProt P11712); assay: Inhibition of CYP2C9 (unknown origin); type: ADME
Chain of Cytochrome P450 2C9 (P11712 whole entry): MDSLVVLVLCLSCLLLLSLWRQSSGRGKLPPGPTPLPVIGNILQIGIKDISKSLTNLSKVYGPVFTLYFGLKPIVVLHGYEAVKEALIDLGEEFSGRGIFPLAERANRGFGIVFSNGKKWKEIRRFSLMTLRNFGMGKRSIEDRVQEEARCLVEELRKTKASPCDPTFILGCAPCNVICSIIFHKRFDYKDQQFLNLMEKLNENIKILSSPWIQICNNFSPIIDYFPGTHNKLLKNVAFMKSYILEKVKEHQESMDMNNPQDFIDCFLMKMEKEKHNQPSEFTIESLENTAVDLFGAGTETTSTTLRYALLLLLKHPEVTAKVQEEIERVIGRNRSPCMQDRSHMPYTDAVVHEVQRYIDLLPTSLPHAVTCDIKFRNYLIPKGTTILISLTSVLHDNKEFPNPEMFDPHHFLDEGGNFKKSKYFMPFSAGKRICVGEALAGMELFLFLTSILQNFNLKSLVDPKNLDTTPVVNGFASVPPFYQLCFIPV

Chain of 2-acylglycerol O-acyltransferase 2 (Q3SYC2 whole entry): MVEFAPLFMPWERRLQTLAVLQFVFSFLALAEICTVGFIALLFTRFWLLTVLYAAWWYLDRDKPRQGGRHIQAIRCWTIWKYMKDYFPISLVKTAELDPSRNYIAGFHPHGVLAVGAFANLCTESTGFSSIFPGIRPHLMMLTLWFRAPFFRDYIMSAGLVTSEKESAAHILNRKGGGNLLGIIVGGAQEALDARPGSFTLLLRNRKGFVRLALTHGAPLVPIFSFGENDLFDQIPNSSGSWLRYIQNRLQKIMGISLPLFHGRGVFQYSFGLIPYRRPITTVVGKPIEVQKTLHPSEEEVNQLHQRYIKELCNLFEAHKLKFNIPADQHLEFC
Chain of Cytochrome P450 3A4 (P08684 whole entry): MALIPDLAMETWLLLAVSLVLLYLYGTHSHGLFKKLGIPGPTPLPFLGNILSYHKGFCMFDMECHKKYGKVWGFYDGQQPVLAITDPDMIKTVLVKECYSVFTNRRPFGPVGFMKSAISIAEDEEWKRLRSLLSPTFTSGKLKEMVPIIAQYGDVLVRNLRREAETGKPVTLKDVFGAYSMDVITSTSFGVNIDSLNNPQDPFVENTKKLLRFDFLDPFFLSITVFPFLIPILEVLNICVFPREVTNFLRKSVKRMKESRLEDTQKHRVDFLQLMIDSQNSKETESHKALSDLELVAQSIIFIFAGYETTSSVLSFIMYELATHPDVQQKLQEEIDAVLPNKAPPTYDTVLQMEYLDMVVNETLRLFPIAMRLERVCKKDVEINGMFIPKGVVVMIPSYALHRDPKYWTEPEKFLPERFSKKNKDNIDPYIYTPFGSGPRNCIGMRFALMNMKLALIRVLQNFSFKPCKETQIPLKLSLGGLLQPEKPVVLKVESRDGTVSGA
Chain of Cytochrome P450 2C19 (P33261 whole entry): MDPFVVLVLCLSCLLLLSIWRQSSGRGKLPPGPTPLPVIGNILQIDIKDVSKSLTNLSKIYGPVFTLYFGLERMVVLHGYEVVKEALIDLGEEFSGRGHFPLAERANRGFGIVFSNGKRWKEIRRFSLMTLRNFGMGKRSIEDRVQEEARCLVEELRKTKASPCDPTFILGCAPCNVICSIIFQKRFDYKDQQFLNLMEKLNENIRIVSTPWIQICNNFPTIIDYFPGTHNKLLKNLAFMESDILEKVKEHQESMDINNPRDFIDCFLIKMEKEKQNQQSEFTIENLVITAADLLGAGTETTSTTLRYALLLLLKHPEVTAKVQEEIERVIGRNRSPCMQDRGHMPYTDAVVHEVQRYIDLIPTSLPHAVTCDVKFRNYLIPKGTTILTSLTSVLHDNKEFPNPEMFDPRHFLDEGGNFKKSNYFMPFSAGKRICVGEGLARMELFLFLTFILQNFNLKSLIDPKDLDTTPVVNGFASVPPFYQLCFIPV
Chain of Cytochrome P450 2D6 (P10635 whole entry): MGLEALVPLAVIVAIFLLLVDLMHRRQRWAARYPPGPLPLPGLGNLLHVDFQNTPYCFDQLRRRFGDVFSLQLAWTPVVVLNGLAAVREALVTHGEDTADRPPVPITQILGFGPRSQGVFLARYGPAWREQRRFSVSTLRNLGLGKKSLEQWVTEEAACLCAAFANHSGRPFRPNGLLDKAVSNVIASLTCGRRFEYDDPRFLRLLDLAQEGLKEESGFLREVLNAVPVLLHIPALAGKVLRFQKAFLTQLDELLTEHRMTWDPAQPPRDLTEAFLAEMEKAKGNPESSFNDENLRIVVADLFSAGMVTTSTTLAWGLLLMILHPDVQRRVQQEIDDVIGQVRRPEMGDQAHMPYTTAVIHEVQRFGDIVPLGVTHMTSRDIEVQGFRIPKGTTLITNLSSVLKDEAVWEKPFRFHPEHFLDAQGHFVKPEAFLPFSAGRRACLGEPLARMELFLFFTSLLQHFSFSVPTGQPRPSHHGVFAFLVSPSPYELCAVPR

Compound | logD at 0.5 h [1] | Papp A→B [2] | IC50 [3] | further results
CCC1(C)NC(=O)c2cc(S(=O)(=O)Nc3ccc(C(F)(F)F)cc3OC)cc(Cl)c2NC1=O (stereo not drawn) | 3 | 58 ×10⁻⁶ cm/s | 7 nM | 
CCc1cc(S(=O)(=O)Nc2ccc(F)cc2F)cc2c1NC(=O)C(C)(CC)NC2=O (racemic) | 2.1 | 24 ×10⁻⁶ cm/s | 4 nM | 
CCC1(C)NC(=O)c2cc(S(=O)(=O)Nc3ccc(F)cc3F)cc(C)c2NC1=O (single isomer, unassigned; enantiomer 2) | 5.4 | 14 ×10⁻⁶ cm/s | 62 nM | 
CC1(C)NC(=O)c2cc(S(=O)(=O)Nc3ccc(C(F)(F)F)cc3)c(F)cc2NC1=O |  |  | 1490 nM | 
CCC1(C)NC(=O)c2cc(S(=O)(=O)Nc3ccc(C)cc3C#N)cc(Cl)c2NC1=O (single isomer, unassigned; enantiomer 1) |  |  | 23 nM | logD [1]: 0.4; Papp (Caco-2): 14 ×10⁻⁶ cm/s
COc1c(S(=O)(=O)Nc2ccc(C(F)(F)F)cc2)ccc2c1C(=O)NC(C)(C)C(=O)N2 | 1.9 | 7 ×10⁻⁶ cm/s | > 100000 nM | 
COc1cc2c(cc1S(=O)(=O)Nc1ccc(C(F)(F)F)cc1)C(=O)NC(C)(C)C(=O)N2 | 2.8 | 1 ×10⁻⁶ cm/s | 7610 nM | 
CC[C@]1(C)NC(=O)c2cc(S(=O)(=O)Nc3ccc(F)cc3F)ccc2NC1=O | 1.7 | 8 ×10⁻⁶ cm/s |  | 
Cc1cc2c(cc1S(=O)(=O)Nc1ccc(C(F)(F)F)cc1)C(=O)NC(C)(C)C(=O)N2 |  |  | 13400 nM | 
CC1(C)NC(=O)c2cc(S(=O)(=O)Nc3ccc(F)cc3F)ccc2NC1=O | 1.3 | 5 ×10⁻⁶ cm/s | 58 nM | 
CC1(C)NC(=O)c2cc(S(=O)(=O)Nc3ccc(C(F)(F)F)cc3)cnc2NC1=O | 1.8 | 10 ×10⁻⁶ cm/s | > 66000 nM | 
Cc1cc(S(=O)(=O)Nc2ccc(C(F)(F)F)cc2)cc2c1NC(=O)C(C)(C)NC2=O | 2.6 | 7 ×10⁻⁶ cm/s | 52 nM | 
Cc1cc(S(=O)(=O)Nc2ccc(F)cc2F)cc2c1NC(=O)C(C)(C)NC2=O | 1.4 | 10 ×10⁻⁶ cm/s | 16 nM | 
CCC1(C)NC(=O)c2cc(S(=O)(=O)Nc3ccc(C)cc3C#N)cc(Cl)c2NC1=O (single isomer, unassigned) | 0.6 | 11 ×10⁻⁶ cm/s | 117 nM | 
CCC1(C)NC(=O)c2cc(S(=O)(=O)Nc3ccc(F)cc3F)cc(OC)c2NC1=O (racemic) | 1.8 | 22 ×10⁻⁶ cm/s | 10 nM | 
CC1(C)NC(=O)c2cc(S(=O)(=O)Nc3ccc(F)cc3F)cc(C(F)(F)F)c2NC1=O | 1.9 | 46 ×10⁻⁶ cm/s | 30 nM | 
CC1(C)NC(=O)c2cc(S(=O)(=O)Nc3ccc(C(F)(F)F)cc3)ccc2NC1=O | 2.6 | 6 ×10⁻⁶ cm/s | 911 nM | 

More lines, in order of falling IC50 [3], values ahead:

logD at 0.5 h [1] | Papp A→B [2] | IC50 [3] | Compound | further results
2.4 | 4 ×10⁻⁶ cm/s | 40400 nM | CC1(C)NC(=O)c2c(ccc(S(=O)(=O)Nc3ccc(C(F)(F)F)cc3)c2F)NC1=O | 
 | 9 ×10⁻⁶ cm/s | 13600 nM | Cc1c(S(=O)(=O)Nc2ccc(C(F)(F)F)cc2)ccc2c1C(=O)NC(C)(C)C(=O)N2 | 
1.6 | 1 ×10⁻⁶ cm/s | 10500 nM | CC1(C)NC(=O)c2cc(S(=O)(=O)Nc3ccc(C(F)(F)F)cc3)ncc2NC1=O | 
2.3 | 14 ×10⁻⁶ cm/s | 1950 nM | CC1(C)NC(=O)c2cc(S(=O)(=O)Nc3ccc(C(F)(F)F)cc3)cc(F)c2NC1=O | 
 | 3 ×10⁻⁶ cm/s | 405 nM | CC1(C)NC(=O)c2cc(S(=O)(=O)Nc3ccc(F)cc3F)cc(C#N)c2NC1=O | 
2.6 | 12 ×10⁻⁶ cm/s | 109 nM | COc1cc(S(=O)(=O)Nc2ccc(C(F)(F)F)cc2)cc2c1NC(=O)C(C)(C)NC2=O | 
1.7 | 9 ×10⁻⁶ cm/s | 12 nM | CC[C@]1(C)NC(=O)c2cc(S(=O)(=O)Nc3ccc(C(F)(F)F)cc3F)ccc2NC1=O | 
1.8 | 29 ×10⁻⁶ cm/s | 12 nM | CCC1(C)NC(=O)c2cc(S(=O)(=O)Nc3ccc(C(F)(F)F)cc3F)cc(Cl)c2NC1=O (stereo not drawn) | 
1.9 | 35 ×10⁻⁶ cm/s | 9 nM | CCC1(C)NC(=O)c2cc(S(=O)(=O)Nc3ccc(F)cc3F)cc(Cl)c2NC1=O (stereo not drawn) | IC50 (Cytochrome P450 2C19): 27 µM; fraction unbound [4]: 0.037; bioavailability [5]: 74%; Vd [6]: 0.4 L/kg; clearance [7]: 4.1 mL/min/kg; half-life [8]: 12 min; Vd [9]: 0.5 L/kg; solubility at 24 h [10]: 150 µM (≈ 66.6 µg/mL); fraction unbound [11]: 0.017; half-life [12]: 72 min; bioavailability [13]: 69%; IC50 (Cytochrome P450 3A4): > 30 µM; IC50 (Cytochrome P450 1A2): > 30 µM; IC50 (Cytochrome P450 2D6): > 30 µM; fraction unbound [14]: 0.03; half-life [15]: 78 min; clearance [16]: 29 mL/min/kg; half-life [17]: 144 min; IC50 (Cytochrome P450 2C9): > 30 µM
 |  | 7 nM | CCC1(C)NC(=O)c2cc(S(=O)(=O)Nc3ccc(F)cc3F)cc(C)c2NC1=O (single isomer, unassigned) | logD [1]: 6.5; Papp (Caco-2): 9 ×10⁻⁶ cm/s
